These results are taken from US20130096189A1, “USE OF GLABRANIN FOR STIMULATING HAIR GROWTH” (priority 2010, published 2013).

The assay concerns Fibroblast cells from the NIH3T3D4 cell line. Put plainly: In-vitro fibroblast cell growth in low serum (colourimetric cell number, Promega CellTiter), with or without potassium channel blockers. It is filed as cell-based. As to conditions: for Data (absorbance at 450 nM), cell number: 5 days, mean ± SD, 8 replicates. Here is the method:
The assay described hereinbelow looks at the effect of an active on potentiation of cell growth in a low nutrient environment, ie at the effects of the active on cell growth factors which are mitogenic, rather than on the identification of an active which itself is mitogenic.
Glabranin (TimTec) was added in 50 μL of dimethylsulphoxide (DMSO) and vortexed to dissolve. […] of the glabranin in DMSO was added to Dulbeccos Minimum Essential Medium (DMEM) containing 2% v/v foetal calf serum (FCS) to give a 10 μg/mL glabranin solution. Serial dilutions were prepared using DMSO/DMEM/FCS as above. 1 mM minoxidil in DMSO/DMEM/FCS as above was used as a positive control. A DMSO control in DMEM containing 2% v/v FCS was also prepared.
Fibroblast cells from the NIH3T3D4 cell line (European collection of animal cell cultures, Health Protection Agency Porton Down, England) were cultured in DMEM media in the absence of antibiotics. The cells were removed using 10 mL of 0.25% w/w trypsin and 0.038% w/v EDTA in Hank's medium for 5 minutes, 10 mL DMEM containing 10% v/v FCS was added and the cells were spun down at 1000 rpm for 2 minutes. After removing the medium the cells were washed in 10 mL of DMEM containing 10% v/v FCS and spun at 1000 rpm for 2 minutes. The cells were then resuspended in 10 mL of DMEM containing 10% v/v FCS and counted using a cell counting chamber. A suspension of cells containing 5000 cells per 100 μL (50,000 cells per mL) was prepared and 100 μL of the cell suspension was plated out into a 96 well plate. The cells were allowed to adhere overnight in an incubator at 37 degrees centigrade in an atmosphere of 5% v/v CO2 in air. After washing the wells thrice with DMEM (without FCS), 100 μL of the test solution (containing […] glabranin per mL DMSO/DMEM/FCS with or without 10 μM glibenclamide (a potassium ion channel blocker) and 0.1 mM tetraethylammonium (TEA is a potassium ion channel blocker which directly binds to the channel) was added to each of eight wells. Fresh media containing glabranin was added every day for 5 days.
Cell numbers were determined after 5 days in test medium using a colourimetric method (Promega CellTiter Reagent from Promega). 20 μL Reagent was added to each well and the plate incubated as before for one hour.

As for `Nc1cc(N2CCCCC2)nc(N)[n+]1[O-]` [Minoxidil, reference compound], the “Data (absorbance at 450 nM), cell number” value (Minoxidil 75 μM in 2% FCS/DMSO) turned out to be 0.36 ± 0.04.

For the molecule `CC(C)=CCc1c(O)cc(O)c2c1O[C@H](c1ccccc1)CC2=O` [glabranin, (2S)-5,7-dihydroxy-8-(3-methylbut-2-enyl)-2-phenyl-2,3-dihydrochromen-4-one], the “Data (absorbance at 450 nM), cell number” value amounted to 0.34 ± 0.02 (glabranin 0.01 μg/ml in 2% FCS/DMSO), 0.34 ± 0.02 (glabranin 0.1 μg/ml in 2% FCS/DMSO) and 0.31 ± 0.02 (glabranin 1 μg/ml in 2% FCS/DMSO). The “potassium channel opening leading to fibroblast cell growth (conclusion from table 1)” value (growth increase reversed by potassium channel blockers) is on record as “potassium channel opener”.
